The target of assay [1] is T1, recombinant human ALK5 (TGF-βR1) protein (Homo sapiens, UniProt P36897).
T1 construct: purchased Life Technologies PR9075A
T1 sequence (P36897 34-503): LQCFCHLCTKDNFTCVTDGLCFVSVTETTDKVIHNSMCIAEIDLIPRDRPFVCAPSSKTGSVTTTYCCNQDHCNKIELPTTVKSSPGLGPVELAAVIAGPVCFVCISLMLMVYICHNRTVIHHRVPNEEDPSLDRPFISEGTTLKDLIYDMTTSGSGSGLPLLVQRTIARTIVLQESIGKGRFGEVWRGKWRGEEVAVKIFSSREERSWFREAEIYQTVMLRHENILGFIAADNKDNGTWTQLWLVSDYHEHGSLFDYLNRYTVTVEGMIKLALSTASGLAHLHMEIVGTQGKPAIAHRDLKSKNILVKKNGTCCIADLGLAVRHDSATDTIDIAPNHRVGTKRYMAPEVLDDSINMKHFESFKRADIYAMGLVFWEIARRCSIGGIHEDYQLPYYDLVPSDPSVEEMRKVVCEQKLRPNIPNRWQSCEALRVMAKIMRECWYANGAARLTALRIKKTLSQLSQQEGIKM
In words: Biochemical ALK5 (TGF-βR1) assay to measure pKi (LANCE Ultra ULight kinase assay). The settings on record: apparent pKi from pIC50 by Cheng-Prusoff, read-out: ALK5 pKi (converted). Summed up: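 Compounds (10 μM to 25 pM) were preincubated 60 min at room temperature with enzyme, then reactions were started with ATP (125 μM stock, 5× final) and run 60 min at 37 °C. EDTA-containing Eu-anti-phospho-Topo IIα (Thr1342) antibody stopped the reaction; TR-FRET read at 665 nm. pIC50 from 4-parameter fit, converted to pKi via Cheng-Prusoff.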

Assay [2] has as its system TGF-β-stimulated SMAD3 phosphorylation in BEAS-2B cells. In words: Cellular ALK5 potency assay, inhibition of TGF-β stimulated pSMAD3 formation in BEAS-2B cells. In kind it is cell-based. The settings on record: Homo sapiens; inhibition of TGF-β stimulated pSMAD3 formation, BEAS-2B cells; read-out: BEAS2B pIC50 (converted). An outline of the steps: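 Potency is reported as pIC50, derived from concentration-dependent reduction of pSMAD3 AlphaLISA signal against TGF-β-stimulated cells without compound. BEAS-2B cells received compound for 1 h before a 30-min stimulation with 10 ng/mL TGF-β.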

Bounds are passed on as bounds.

For `Cc1cccc(-c2[nH]cnc2-c2ccc3ncc(C4=CCC(NCc5ccccc5)CC4)cc3n2)n1` (stereo not drawn) [Compound 228, N-benzyl-4-[6-[5-(6-methyl-2-pyridyl)-1H-imidazol-4-yl]-1,5-naphthyridin-3-yl]cyclohex-3-en-1-amine], the Ki in assay [1] is 0.0398 to 0.316 nM. For the same compound, in assay [2], the IC50 was 200 to 1260 nM.
As for `Cc1cccc(-c2[nH]cnc2-c2ccc3ncc(-c4ccc5c(c4)CNC5)cc3c2)n1` [Compound 699, 3-isoindolin-5-yl-6-[5-(6-methyl-2-pyridyl)-1H-imidazol-4-yl]quinoline], in assay [1], the Ki is under 0.0316 nM. For the same compound, the IC50 in assay [2] is under 20 nM.
For `Cc1cccc(-c2[nH]ncc2-c2ccc3ncc(C(=O)OCC4CNC4)cc3c2)n1` [Compound 790, azetidin-3-ylmethyl 6-(5-(6-methylpyridin-2-yl)-1H-pyrazol-4-yl)quinoline-3-carboxylate], in assay [1], the Ki is 0.0398 to 0.316 nM. Also, the IC50 in assay [2] is 25.1 to 158 nM.
For `Cc1cccc(-c2[nH]cnc2-c2ccc3ncc(NCCN4CCCC4(C)C)cc3n2)n1` [Compound 627, N-[2-(2,2-dimethylpyrrolidin-1-yl)ethyl]-6-[5-(6-methyl-2-pyridyl)-1H-imidazol-4-yl]-1,5-naphthyridin-3-amine], the Ki in assay [1] was 0.0398 to 0.316 nM. For the same compound, the IC50 in assay [2] is 25.1 to 158 nM.
Consider `Cc1cccc(-c2[nH]cnc2-c2ccc3ncc(-c4ncc(C(=O)OCCN5CCNCC5)cn4)cc3c2)n1` [Compound 1125, 2-piperazin-1-ylethyl 2-[6-[5-(6-methyl-2-pyridyl)-1H-imidazol-4-yl]-3-quinolyl]pyrimidine-5-carboxylate], for which the Ki in assay [1] is under 0.0316 nM. For the same compound, in assay [2], the IC50 was 25.1 to 158 nM.
Consider `Cc1cccc(-c2nc3ccccn3c2-c2ccc3ncc(-c4cnn(CCN)c4)cc3n2)n1` [Compound 660, 2-[4-[6-[2-(6-methyl-2-pyridyl)imidazo[1,2-a]pyridin-3-yl]-1,5-naphthyridin-3-yl]pyrazol-1-yl]ethanamine], for which the Ki in assay [1] is 0.0398 to 0.316 nM. For the same compound, the IC50 in assay [2] was 25.1 to 158 nM.
Take `Cc1cccc(-c2[nH]cnc2-c2ccc3ncc(-c4cccc(N5CCNCC5)c4)cc3c2)n1` [Compound 581, 6-[5-(6-methyl-2-pyridyl)-1H-imidazol-4-yl]-3-(3-piperazin-1-ylphenyl)quinoline]: in assay [1], the Ki was under 0.0316 nM. In addition, in assay [2], the IC50 is 25.1 to 158 nM.
For `Cc1cccc(-c2[nH]cnc2-c2ccc3ncc(-c4ccc(C(=O)O[C@H]5CCNC5)nc4)cc3c2)n1` [Compound 1122, [(3S)-pyrrolidin-3-yl] 5-[6-[5-(6-methyl-2-pyridyl)-1H-imidazol-4-yl]-3-quinolyl]pyridine-2-carboxylate], in that order: 0.0398 to 0.316 nM and 200 to 1260 nM.
With `Cc1cccc(-c2n[nH]cc2-c2ccc3ncc(NCCN4C[C@@H](C)N[C@@H](C)C4)cc3n2)n1` [Compound 516, 6-[3-(6-methyl-2-pyridyl)-1H-pyrazol-4-yl]-N-[2-[rac-(3R,5S)-3,5-dimethylpiperazin-1-yl]ethyl]-1,5-naphthyridin-3-amine], in assay [1], the Ki is 0.0398 to 0.316 nM. In addition, the IC50 in assay [2] was 25.1 to 158 nM.
On to `Cc1cccc(-c2nnn(Cc3ccccc3)c2-c2ccc3ncc(N4CCC(N5CCN(C)CC5)CC4)cc3n2)n1` [Compound 475, 2-[3-benzyl-5-(6-methyl-2-pyridyl)triazol-4-yl]-7-[4-(4-methylpiperazin-1-yl)-1-piperidyl]-1,5-naphthyridine], for which, in assay [1], the Ki is 0.0398 to 0.316 nM. The IC50 in assay [2] was 200 to 1260 nM.
For the compound `Cc1cccc(-c2[nH]cnc2-c2ccc3ncc(NCCN4CCC5(CCNC5)C4)cc3c2)n1` (stereo not drawn) [Compound 711, N-[2-(2,7-diazaspiro[4.4]nonan-2-yl)ethyl]-6-[5-(6-methyl-2-pyridyl)-1H-imidazol-4-yl]quinolin-3-amine], the Ki in assay [1] was 0.0398 to 0.316 nM. Besides, the IC50 in assay [2] is 200 to 1260 nM.
For `Cc1nc(-c2n[nH]cc2-c2ccc3ncc(-c4ncn5c4CNCC5)cc3n2)ccc1F` [Compound 107, 2-[3-(5-fluoro-6-methyl-2-pyridyl)-1H-pyrazol-4-yl]-7-(5,6,7,8-tetrahydroimidazo[1,5-a]pyrazin-1-yl)-1,5-naphthyridine], in that order: 0.0398 to 0.316 nM and 25.1 to 158 nM.

Values taken from patent US11590116B2 (THERAVANCE BIOPHARMA R&D IP, LLC, priority 2019, dated 2023).
